Experimental data taken from patent publication EP4785795A1 (priority 2023, dated 2025).

Tested on: Aspergillus flavus
Type: cell-based

Row | SMILES | aflatoxin production inhibiting activity | aflatoxin production inhibiting activity relative to the natural product cyclo (L-Ala-Gly) (based on the IC50 (concentration that reduces the amount of aflatoxin B1 to 1/2), 25°C, 4 days)
1 | O=C1CNC(=O)CN1 [cyclo (Gly-Gly)] | did not exhibit sufficient aflatoxin production inhibiting activity | 
2 | C[C@H]1NC(=O)CNC1=O [cyclo (D-Ala-Gly)] | did not exhibit sufficient aflatoxin production inhibiting activity | 
3 | CC[C@@H]1NC(=O)CNC1=O [cyclo (L-Abu(2)-Gly)] | extremely excellent aflatoxin production inhibiting activity | 75 fold
